Measured values: US20160340324A1, “METHODS AND COMPOSITIONS FOR TREATING CANCER” (Sanford-Burnham Medical Research Institute, priority 2013, published 2016)

What was measured:
[1] = test system: cancer cells; settings: literature (Weggen 2001; Yamamoto 1999; Zhang 2000); cited from earlier work
[2] = test system: A549 cells; test: PARP cleavage (apoptosis) with or without TNFα, immunoblotting; assay type: cell-based, human; settings: 4 h; for PARP cleavage, combination with TNFα: 40 μM compound plus TNFα 10 ng/mL
[3] = test system: A549 lung cancer, PC3 prostate cancer, ZR-75-1 and MB231 breast cancer cells; test: MTT cell viability / growth inhibition assay; assay type: cell-based, human; settings: 48 h
Description: (§1) Cell viability was measured by the MTT colorimetric assay. FIG. 3B depicts inhibition of TNFα-induced AKT activation. […] Phosphorylated AKT and total AKT were analyzed by immunoblotting.
FIGS. 8A-C are a series of graphs depicting that sulindac and other compounds induce apoptosis of cancer cells. FIG. 8A is a PC3 prostate cancer cell line. FIG. 8B is a ZR-75-1 breast cancer cell line, and FIG. 8C is a MDA-MB-231 breast cancer cell line. Each were treated with the indicated concentration of Sulindac or other compounds for 48 h. Cell viability was determined by the MTT assay.
Confluent cells cultured in 96-well dishes were treated with various concentrations of compounds for 48 h. The cells were then incubated with 2 mg/mL (3-(4,5-Dimethylthiazol-2-yl)-2,5-diphenyltetrazolium bromide (MTT) for 4 h at 37° C. MTT solution was then aspirated and formazan in cells was instantly dissolved by addition of 150 μL DMSO each well. Absorbance was measured at 570 nm.

[4] = test system: HepG2 tumor xenografts; test: HepG2 tumor xenografts in nude mice; assay type: in vivo; settings: for apparent toxic effects such as loss of body weight: 20 mg/kg daily for 12 days, body weight every 3 days; for reduction of tumor weight: 20 mg/kg intraperitoneally once a day, 12-day treatment
Description: FIGS. 4A-4F depict inhibition of HepG2 tumor growth in animals. FIG. 4A is a photograph of tumors. FIG. 4B is a graph of tumor volume. FIG. 4C is a graph of tumor weight. […] Tumors were removed and measured. Tumor sizes and weights in control, K-80003 and K-8008-treated mice were compared. FIG. 4D is a Western blot. Lysates prepared from three tumors treated with vehicle or K-8008 were analyzed by Western blotting assay for p-AKT expression. FIG. 4E is a series of photomicrographs. H&E staining and TUNEL assay. Tumor sections were stained for H&E or TUNEL by immunohistochemistry. […]. FIG. 4F is a graph of body weight. […]. Body weight was measured every three days. Each point represents the mean±standard deviation of six mice. The differences between the compound treated group and control group are not significant (P>5%).
[…]. Nude mice (BALB/c, SPF grade. 16-18 g, 4-5-week old) were housed at 28° C. in a laminar flow under sterilized conditions. Mice were injected subcutaneously with 100 μL HepG2 cells ([…]). […]. Body weight and tumor size were measured every 3 days. Mice were sacrificed after 12-day drug treatment and the tumors removed for various assessments.
Paraffin wax embedded tumors were cut into 5 |iM-thick sections. These sections were deparaffinized and stained with hematoxylin and eosin (H&E) according to the standard protocol. Tumor sections of HepG2 xenografts were also stained with TUNEL for assessing spontaneous apoptosis according to the manufacturer's instructions (In situ Cell Death Detection Kit; Roche). The images were taken under a fluorescent microscope (Carl Zeiss).

[5] = test system: TNFα-induced AKT activation in A549 lung cancer cells; test: Inhibition of TNFα-induced AKT activation, immunoblotting; assay type: cell-based, human; settings: pretreated 1 h, TNFα 10 ng/mL 30 min
Description: as §1
ZR-75-1 and MB231 breast cancer cells (FIG. 8). A unique property of Sulindac and other compounds are their ability to inhibit TNFα-induced AKT activation (Zhou et al, 2010). […] Similar results were obtained in other cancer cell lines (FIG. 9).
Cells were lysed and equal amounts of the lysates were electrophoresed on 10% SDS-PAGE gels and transferred onto PVDF membranes (Millipore). The membranes were blocked with 5% skimmed milk in TBST [50 mM Tris-HCl (pH7.4), 150 mM NaCl and 0.1% Tween20] for 1 h, then incubated with primary antibodies and secondary antibodies and detected using ECL system (Thermo). The dilutions of the primary antibodies were anti-RXRα (AN 197, Santa Cruz) in 1:1000, anti-PARP(H-250. Santa Cruz) in 1:3000, anti-p85α (Millipore) in 1:1000, anti-p-AKT (D9E, Cell Signaling Technology) in 1:1000, anti-AKT 1/2/3 (H-136, Santa Cruz) in 1:1000, anti-β-actin (Sigma) in 1:5000, anti-c-myc (9E10, Santa Cruz), anti-Flag (FI 804, Sigma).

[6] = molecular target: T1, RXRα-LBD (Homo sapiens, UniProt P19793); test: Mammalian one hybrid: Gal4-RXRα-LBD chimera (pBind-RXRα-LBD) and pG5luc reporter in HCT-116 cells; assay type: cell-based; settings: 9-cis-RA 10^-7 M, BI-1003 1 μM, K-8008 and K-8012 50 μM
T1 construct: expressed in transfected cells; host or cells: HCT-116
T1 sequence (P19793 227-458 limits assumed): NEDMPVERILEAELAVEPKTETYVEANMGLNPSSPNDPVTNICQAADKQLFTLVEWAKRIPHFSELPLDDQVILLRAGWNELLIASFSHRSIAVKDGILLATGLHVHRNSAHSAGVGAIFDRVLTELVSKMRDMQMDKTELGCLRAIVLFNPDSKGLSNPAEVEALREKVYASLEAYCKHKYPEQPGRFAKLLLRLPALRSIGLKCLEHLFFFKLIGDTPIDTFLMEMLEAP
Description: FIGS. 2A and 2B are graphs of relative CAT activity. (TREpal)2-tk-CAT and RXRα were transiently transfected into CV-1 cells. […] CAT activity was determined. […] Error bars represent SEM. FIG. 2C is a graph of relative LUC activity. pBind-RXRα-LBD and pG5luc were transiently transfected into HCT-116 cells. […] Luciferase activity was determined. […] HCT-116 cells seeded in 24-well plates were transiently transfected with 50 ng pG5luc, 25 ng pBind-RXRα-LBD. […] Cells were washed, lysed and assayed by using the Dual-Luciferase Reporter Assay System (Promega). Transfection efficiency was normalized to Renilla luciferase activity.

[7] = molecular target: T2, RXRα (Homo sapiens, UniProt P19793); test: CAT reporter assay with (TREpal)2-tk-CAT and RXRα transfected into CV-1 cells; assay type: cell-based; settings: 9-cis-RA 10^-7 M, BI-1003 1 μM
T2 construct: expressed in transfected cells; host or cells: CV-1 African green monkey kidney cells
T2 sequence (P19793 1-462): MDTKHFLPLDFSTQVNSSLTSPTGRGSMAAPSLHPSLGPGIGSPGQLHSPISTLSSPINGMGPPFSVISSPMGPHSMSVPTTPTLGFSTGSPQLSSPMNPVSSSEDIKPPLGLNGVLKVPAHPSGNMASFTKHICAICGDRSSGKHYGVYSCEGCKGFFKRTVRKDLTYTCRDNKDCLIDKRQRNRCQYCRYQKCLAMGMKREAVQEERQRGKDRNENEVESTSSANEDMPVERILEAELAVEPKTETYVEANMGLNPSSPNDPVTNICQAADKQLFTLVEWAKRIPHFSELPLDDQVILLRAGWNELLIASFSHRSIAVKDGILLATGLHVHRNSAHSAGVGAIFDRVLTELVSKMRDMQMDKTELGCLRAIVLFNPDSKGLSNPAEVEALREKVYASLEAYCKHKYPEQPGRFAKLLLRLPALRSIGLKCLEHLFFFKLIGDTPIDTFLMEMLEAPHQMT
Description: FIGS. 2A and 2B are graphs of relative CAT activity. (TREpal)2-tk-CAT and RXRα were transiently transfected into CV-1 cells. […] CAT activity was determined. […] Error bars represent SEM. FIG. 2C is a graph of relative LUC activity. pBind-RXRα-LBD and pG5luc were transiently transfected into HCT-116 cells. […] Luciferase activity was determined.

[8] = molecular target: T3, human RXRα-LBD (Homo sapiens, UniProt P19793); test: Ligand-binding competition assay with [3H]9-cis-RA; settings: [3H]-9-cis-RA 7.5 nM
T3 sequence (P19793 223-462): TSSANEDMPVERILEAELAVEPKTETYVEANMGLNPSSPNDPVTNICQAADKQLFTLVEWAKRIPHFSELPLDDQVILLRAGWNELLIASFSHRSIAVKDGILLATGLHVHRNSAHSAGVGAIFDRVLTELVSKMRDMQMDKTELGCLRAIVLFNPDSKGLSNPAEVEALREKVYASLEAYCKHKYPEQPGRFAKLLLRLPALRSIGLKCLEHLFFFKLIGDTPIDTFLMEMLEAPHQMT

SMILES	PARP cleavage, combination with TNFα [2]	inhibition of growth of cancer cells compared to Sulindac [3]	apparent toxic effects such as loss of body weight [4]	reduction of tumor weight [4]	TNFα-induced AKT activation [5]	other results
CC1=C(CC(=O)O)c2cc(F)ccc2/C1=C\c1ccc([S+](C)[O-])cc1 (stereo not shown) [Sulindac, reference compound]	significant induction of PARP cleavage					concentration normally used to achieve anti-cancer effects [1]: About 100 μM; PARP cleavage, compound alone ([2]; 40 μM, 1% FBS): slightly induced PARP cleavage
CC1=C(CCc2nnn[nH]2)c2ccccc2/C1=C\c1ccc(C(C)C)cc1 [Compound K-8008, (Z)-5-(2-(1-(4-iso-Propylbenzylidene)-2-methyl-1H-inden-3-yl)ethyl)-1H-tetrazole]	could convert TNFα signaling from survival to death	much more effective	did not show any apparent toxic effects	61.23%	suppressed in a dose dependent manner	apoptosis in tumor sections, TUNEL staining ([4]; 20 mg/kg): induction of apoptosis; growth of HepG2 tumor ([4]; 20 mg/kg intraperitoneally daily): inhibited the growth of HepG2 tumor in a time dependent manner; AKT activation (p-AKT) in tumors, Western blotting ([4]; three tumors, 20 mg/kg): reduction of AKT activation
CCCOc1cc2c(cc1C(=C1CC1)c1ccc(C(=O)O)cc1)C(C)(C)CCC2(C)C [BI-1003]						inhibition of 9-cis-RA-induced Ga14 reporter activation [6]: inhibited; inhibition of 9-cis-RA-induced TREpal reporter activity [7]: inhibited
CC1=C(CC(=O)O)c2cc(F)ccc2/C1=C\c1ccc(C(C)C)cc1 [Compound K-80003, reference compound]			did not show any apparent toxic effects	54.84%		competition with [3H]9-cis-RA for binding to the LBP of RXRα [8]: competed well
CC1=C(CCc2nnn[nH]2)c2cc(F)ccc2/C1=C\c1ccc(C(C)C)cc1 [Compound K-8012, (Z)-5-(2-(5-Fluoro-1-(4-isopropylbenzylidene)-2-methyl-1H-inden-3-yl)ethyl)-1H-tetrazole]	could convert TNFα signaling from survival to death	much more effective			suppressed in a dose dependent manner	
